Source: US20240216336A1, “CLOTRIMAZOLE AS A TREATMENT FOR IMMUNODEFICIENCY DISORDERS” (Northwestern University, priority 2020, published 2024)
One block for each compound: values may come before it.

Columns and labels:
BMDMs = assay: Inflammatory cytokine mRNA expression (quantitative RT-PCR) in BMDMs; assay type: cell-based, mouse; conditions: for increase in IL-1β mRNA levels in BMDMs of ΔE1HK1 mice / increase in IL-6 mRNA levels in BMDMs of ΔE1HK1 mice: 4 hr 6AN (1 mM) or OT (50 μM), ±LPS (200 ng/ml); for increase in IL-1β mRNA levels in IFN-γ primed BMDMs of ΔE1HK1 mice / increase in IL-6 mRNA levels in IFN-γ primed BMDMs of ΔE1HK1 mice: 16 hrs IFNγ priming, then 4 hrs LPS (200 ng/ml) ± 6AN (1 mM) or OT (50 μM)
Protocol: (§1) BMDMs were isolated from ΔE1HK1 and WT mice as previously reported (Rodriguez et al., 2019). Briefly, bone marrow was isolated from the tibia and femur of 8-10-week-old mice by puncturing one end of the femur and tibia with a 27g needle and placing it in a 0.5 ml tube with a hole punched in the bottom. The 0.5 ml tube containing the bone was then placed in a 1.75 ml tube and centrifuged at 5,000×g for 3.5 minutes. Bone marrow was then collected into the 1.75 ml tube and resuspend in 1 ml of RBC lysis buffer (abcam) for 1 minute and then transferred to a 50 ml tube with 4 ml RBC lysis buffer and incubated for 4 minutes. Next, 35 ml of PBS was added and centrifuged at 300×g for 5 min and supernatant was then decanted and cell pellet was re-suspended in complete RPMI with 20 ng/ml mCSF (Preprotech). Cells were counted using a hemocytometer and plated in 10 cm tissue culture plates at a density of 3-million cells/plate. Cells were cultured with 20 ng/mL mCSF to induce differentiation into BMDMs. Media was changed every 2 days and BMDMs were harvested by scraping on day 6 and plated in 12 well plates at a density of 1-million cells/well for mRNA extraction experiments. BMDMs were stimulated in the same manner as peritoneal macrophages (LPS dose for BMDMs was 200 ng/ml).
(§2) RNA was isolated from cells or tissues using RNA-STAT60 (Teltest) followed by chloroform extraction and precipitation. Reverse transcription was carried out using qScript cDNA Synthesis Kit (Quanta Bio). The resulting cDNA was amplified quantitatively using PerfeCTa SYBR Green Mix (Quanta Bio) on a 7500 Fast Real-time PCR System (Applied Biosystems). The relative gene expression was determined using differences in Ct values between gene of interest and house-keeping control genes. Complete list of primers can be found in Key Reagents Table (Table 1).

RAW264.7 cells = assay: Inflammatory cytokine mRNA expression (quantitative RT-PCR) in RAW264.7 cells; assay type: cell-based, mouse; conditions: ±LPS (200 ng/ml) and ±CGP3466 for 4 hrs
Protocol: (§3) RAW264.7 cells were a gift from Jason A. Wertheim MD, PhD. HepG2 and HEK293T cells were obtained from ATCC. RAW264.7, HEK293T, and HepG2 cells were cultured in Dulbecco's Modified Eagle's Medium (DMEM) (Corning) supplemented with 10% FBS (Atlanta Biologicals), 2 mM glutamine (HyClone), and 1 mM sodium pyruvate (Corning). […]
as §2

GAPDH [1] = molecular target: T1, GAPDH (Mus musculus, UniProt P16858); assay: GAPDH activity normalized to total protein in BMDMs; assay type: cell-based; parameters: endogenous in cells; conditions: ±CGP3466 for 4 hrs
Protocol: as §1, with “Media was changed every 2 days and BMDMs were harvested by scraping on day 6 and plated in 12 well plates at a density of 1-million cells/well for mRNA extraction experiments. BMDMs were stimulated in the same manner as peritoneal macrophages (LPS dose for BMDMs was 200 ng/ml).” left out
(§4) The following kits were used according to the manufacturer's instructions: Promega NADP/NADPH quantification kit (G9081) and […] (G9071); Glyceraldehyde-3-Phosphate Dehydrogenase Activity Assay kit (abcam); ELISAs for IL-1β (DY401), IL-6 […].

GAPDH [2] = molecular target: T1, GAPDH; assay: GAPDH activity normalized to total protein in RAW264.7 cells; assay type: cell-based; parameters: endogenous in cells; host or cells: RAW264.7; conditions: LPS (200 ng/ml) ±CGP3466
Protocol: as §3, §4

BMDMs from ΔE1HK1 mice = assay: IL-1β ELISA from BMDM media; assay type: cell-based, mouse; conditions: 4 hrs LPS (200 ng/ml) ± 6AN (1 mM) or OT (50 μM), then 30 min ATP (2.5 mM)
Protocol: as §1, with “Cells were cultured with 20 ng/mL mCSF to induce differentiation into BMDMs. Media was changed every 2 days and BMDMs were harvested by scraping on day 6 and plated in 12 well plates at a density of 1-million cells/well for mRNA extraction experiments. BMDMs were stimulated in the same manner as peritoneal macrophages (LPS dose for BMDMs was 200 ng/ml).” left out
[…] Cell supernatant was collected and analyzed by ELISA according to manufacturer's instructions for IL-1β (DY401), IL-6 (DY406), and TNFα (DY410).
as §4

T1 sequence (P16858 whole entry): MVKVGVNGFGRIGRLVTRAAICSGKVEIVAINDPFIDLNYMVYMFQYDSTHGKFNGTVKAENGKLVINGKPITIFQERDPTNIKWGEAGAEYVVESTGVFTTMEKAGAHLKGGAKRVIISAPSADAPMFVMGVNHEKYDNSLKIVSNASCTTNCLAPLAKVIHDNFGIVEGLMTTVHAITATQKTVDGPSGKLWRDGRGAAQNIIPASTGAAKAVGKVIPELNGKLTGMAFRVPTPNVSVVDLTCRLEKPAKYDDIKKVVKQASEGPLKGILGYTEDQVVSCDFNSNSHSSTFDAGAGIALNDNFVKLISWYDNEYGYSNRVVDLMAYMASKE

difference in GAPDH activity of BMDMs between WT and ΔE1HK1 mice (GAPDH [1]): abolished
GAPDH activity in RAW264.7 cells (GAPDH [2]): decreased
SMILES: C#CCN(C)CC1=Cc2ccccc2Oc2ccccc21.O=C(O)/C=C\C(=O)O [CGP3466, CGP 3466 maleate (CAS 200189-97-5)]
IL-1β mRNA expression in WT BMDMs (BMDMs; ±LPS and ±CGP3466 for 4 hrs, compared with ΔE1HK1 BMDMs): increased IL-1β mRNA expression in WT BMDMs to the level of the hyper-inflamed ΔE1HK1 BMDMs
increase in IL-1β mRNA with LPS in RAW264.7 cells (RAW264.7 cells): amplified

SMILES: NC(=O)c1ccc(N)nc1 [6AN, 6-aminonicotinamide]
IL-1β protein release (ELISA), higher release in ΔE1HK1 BMDMs (BMDMs from ΔE1HK1 mice): reversed
increase in IL-1β mRNA levels in BMDMs of ΔE1HK1 mice (BMDMs): abolished
increase in IL-6 mRNA levels in BMDMs of ΔE1HK1 mice (BMDMs): abolished
increase in IL-1β mRNA levels in IFN-γ primed BMDMs of ΔE1HK1 mice (BMDMs): rescued
increase in IL-6 mRNA levels in IFN-γ primed BMDMs of ΔE1HK1 mice (BMDMs): rescued

SMILES: Cc1ncc(C[n+]2csc(CCO)c2C)c(=O)[nH]1 [OT, oxythiamine]
IL-1β protein release (ELISA), higher release in ΔE1HK1 BMDMs (BMDMs from ΔE1HK1 mice): reversed
increase in IL-1β mRNA levels in BMDMs of ΔE1HK1 mice (BMDMs): abolished
increase in IL-6 mRNA levels in BMDMs of ΔE1HK1 mice (BMDMs): abolished
increase in IL-1β mRNA levels in IFN-γ primed BMDMs of ΔE1HK1 mice (BMDMs): rescued
increase in IL-6 mRNA levels in IFN-γ primed BMDMs of ΔE1HK1 mice (BMDMs): rescued
